The molecules below were run against C5aR (Homo sapiens (Human), UniProt P21730) (assay: Chemotaxis assay using U937 cells (C5aR mediated migration)). Details: read-out: Mig IC50.
Format: cell-based
Experimental: U937 cells are a monocytic cell line which express C5aR, and are available from ATCC (VA). These cells were cultured as a suspension in RPMI-1640 medium supplemented with 2 mM L-glutamine, 1.5 g/L sodium bicarbonate, 4.5 g/L glucose, 10 mM HEPES, 1 mM sodium pyruvate, and 10% FBS. Cells were grown under 5% CO2/95% air, 100% humidity at 37° C. and subcultured twice weekly at 1:6 (cells were cultured at a density range of 1×10^5 to 2×10^6 cells/mL) and harvested at 1×10^6 cells/mL. Prior to assay, cells are treated overnight with 0.5 mM of cyclic AMP (Sigma, OH) and washed once prior to use. cAMP treated U937 cells can be used in C5aR ligand binding and functional assays.
Optionally, compounds may be further assayed for their ability to inhibit chemotaxis in cells. Chemotaxis assays are performed using 5 μm pore polycarbonate, polyvinylpyrrolidone-coated filters in 96-well chemotaxis chambers (Neuroprobe; Gaithersburg, Md.) using chemotaxis buffer (Hank's balanced salt solution (HBSS) and 1% FBS). C5aR ligands (i.e., C5a, R&D Systems; Minneapolis, Minn.) are use to evaluate compound mediated inhibition of C5aR mediated migration. Other chemokines (i.e., SDF-1α; R&D Systems; Minneapolis, Minn.) are used as specificity controls. The lower chamber is loaded with 29 μl of chemokine (i.e., 0.03 nM C5a) and varying amounts of compound; the top chamber contains 100,000 U937 or neutrophil cells in 20 μl. The chambers are incubated 1.5 hours at 37° C., and the number of cells in the lower chamber quantified either by direct cell counts in five high powered fields per well or by the CyQuant assay (Molecular Probes), a fluorescent dye method that measures nucleic acid content and microscopic observation.
The compounds in Table 1, below, were prepared using the methods described above. Characterization data is provided for each compound listed. Activity is provided as follows for the chemotaxis assay using U937 cells as described herein (Example 12): +, 500 nM<IC50; ++, 50 nM<IC50≤500 nM; +++, 5 nM<IC50≤50 nM; and ++++, IC50≤5 nM.

C5aR, sequence (P21730 whole entry): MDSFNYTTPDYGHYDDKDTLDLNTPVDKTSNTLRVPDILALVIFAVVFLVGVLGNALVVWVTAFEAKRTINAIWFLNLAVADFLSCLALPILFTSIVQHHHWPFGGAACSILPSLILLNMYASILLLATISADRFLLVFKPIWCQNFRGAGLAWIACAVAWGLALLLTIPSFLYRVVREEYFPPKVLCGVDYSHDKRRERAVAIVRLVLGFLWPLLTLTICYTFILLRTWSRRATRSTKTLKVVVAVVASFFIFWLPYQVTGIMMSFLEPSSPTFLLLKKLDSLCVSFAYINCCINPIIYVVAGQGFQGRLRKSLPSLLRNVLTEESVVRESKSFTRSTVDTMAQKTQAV

IC50 [nM] | SMILES
5 to 50 | Cc1cccc(OCC(C)C)c1-n1nc2c(c1-c1ccc(NC(N)=O)cc1)CN(c1ccc(C(F)(F)F)c(Cl)c1)CC2 [Example 1.413]
≤ 5 | Cc1cccc(OCC(C)C)c1-n1nc2c(c1-c1ccc(NC(N)=O)cc1)CN(Cc1ccc(F)cc1C(F)(F)F)CC2 [Example 1.358]
≤ 5 | CCc1cccc(CC)c1-n1nc2c(c1-c1cc(F)c(NC(N)=O)cc1F)CN(Cc1ccccc1)C(C)C2 (centres unmarked) [Example 1.151]
≤ 5 | CC(C)COc1cccc(F)c1-n1nc2c(c1-c1cc(F)c(NC(N)=O)cc1F)CN(c1ncc(C(F)(F)F)cc1F)CC2 [Example 1.203]
≤ 5 | Cc1cccc(OCC(C)C)c1-n1nc2c(c1-c1ccc(NC(N)=O)c(F)c1)CN(c1ncc(C(F)(F)F)cc1Cl)CC2 [Example 1.276]
≤ 5 | Cc1cccc(OCC(C)C)c1-n1nc2c(c1-c1ccc(NC(N)=O)cc1)CN(Cc1ccc(C(F)(F)F)cc1F)CC2 [Example 1.329]
≤ 5 | Cc1cccc(OCC(C)C)c1-n1nc2c(c1-c1ccc(NC(N)=O)cc1)CN(c1nc(C(F)(F)F)ccc1C(F)(F)F)CC2 [Example 1.339]
≤ 5 | Cc1cccc(OCC(C)C)c1-n1nc2c(c1-c1ccc(NC(N)=O)cc1)CN(c1cccc(C(F)(F)F)c1)CC2 [Example 1.412]
50 to 500 | Cc1cccc(C)c1-n1nc2c(c1-c1cc(F)c(NC(N)=O)cc1F)CN(C1(C)CCOCC1)CC2 [Example 1.078]
≤ 5 | CCc1cccc(CC)c1-n1nc2c(c1-c1cc(F)c(NC(N)=O)cc1F)CN(Cc1ccccc1C(F)(F)F)C(C)(C)C2 [Example 1.027]
> 500 | Cc1cc(C(C)(C)O)cnc1N1CCc2nn(-c3c(C)cccc3OCC(C)C)c(-c3ccc(NC(N)=O)cc3)c2C1 [Example 1.364]
50 to 500 | Cc1cccc(C)c1-n1nc2c(c1-c1ccc(NC(N)=O)cc1)CN(C(=O)OC(C)(C)C)CC2 [Example 1.417]
5 to 50 | CCc1cccc(CC)c1-n1nc2c(c1-c1ccc(NC(N)=O)cc1)CN(Cc1ccccc1C(F)(F)F)CC2 [Example 1.293]
≤ 5 | Cc1ccc(C(C)(C)C)cc1N1CCc2nn(-c3c(C)cccc3CC(C)C)c(-c3ccc(NC(N)=O)cc3)c2C1 [Example 1.401]
> 500 | CCc1cccc(CC)c1-n1nc2c(c1-c1ccc(NC(N)=O)cc1)CN(Cc1ccccn1)CC2 [Example 1.283]
5 to 50 | Cc1cc(C(C)C)cnc1N1CCc2nn(-c3c(C)cccc3OCC(C)C)c(-c3ccc(NC(N)=O)cc3)c2C1 [Example 1.355]
5 to 50 | Cc1cccc(OCC(C)C)c1-n1nc2c(c1-c1ccc(N)cc1)CN(c1ccccc1C(C)(C)C)CC2 [Example 1.455]
50 to 500 | COc1cccc(C)c1-n1nc2c(c1-c1ccc(N)cc1)CN(c1cc(C(C)(C)C)ccc1C)CC2 [Example 1.469]
5 to 50 | CCC(C)(C)CN1CCc2nn(-c3c(C)cccc3OCC(C)C)c(-c3ccc(NC(N)=O)cc3)c2C1 [Example 1.381]

IC50 [nM] | SMILES
≤ 5 | Cc1cc(C(C)C)cnc1N1CCc2nn(-c3c(C)cccc3OCC(C)C)c(-c3cc(F)c(NC(N)=O)cc3F)c2C1 [Example 1.185]
≤ 5 | Cc1cccc(C)c1-n1nc2c(c1-c1cc(F)c(NC(N)=O)cc1F)CN(c1ccc(OC(F)(F)F)cc1F)CC2 [Example 1.099]
5 to 50 | Cc1cccc(OCC(C)C)c1-n1nc2c(c1-c1ccc(NC(N)=O)cc1)CN(c1cc(C(C)(C)C)ccc1Cl)CC2 [Example 1.422]
≤ 5 | Cc1cccc(OCC(C)C)c1-n1nc2c(c1-c1ccc(NC(N)=O)c(F)c1)CN(CC1CCCCC1)CC2 [Example 1.256]
≤ 5 | Cc1cccc(OCC(C)C)c1-n1nc2c(c1-c1cc(F)c(NC(N)=O)cc1Cl)CN(c1ncc(C(F)(F)F)cc1F)CC2 [Example 1.217]
5 to 50 | CCc1cccc(CC)c1-n1nc2c(c1-c1cc(F)c(N)cc1F)CN(Cc1ccc(C(F)(F)F)cc1C(F)(F)F)CC2 [Example 1.004]
50 to 500 | Cc1cccc(OCC(C)C)c1-n1nc2c(c1-c1ccc(NC(N)=O)cc1)CN(C(=O)CCc1ccccc1)CC2 [Example 1.429]
≤ 5 | Cc1cnc(N2CCc3nn(-c4c(C)cccc4OCC(C)C)c(-c4cc(F)c(NC(N)=O)cc4F)c3C2)nc1 [Example 1.158]
5 to 50 | Cc1cccc(OCC(C)C)c1-n1nc2c(c1-c1ccc(NC(N)=O)cc1)CN(c1cc(C(F)(F)F)ccc1F)CC2 [Example 1.368]
≤ 5 | Cc1cccc(C)c1-n1nc2c(c1-c1cc(F)c(NC(N)=O)cc1F)CN(c1ncc(C(F)(F)F)cc1F)CC2 [Example 1.174]
≤ 5 | CCc1cccc(CC)c1-n1nc2c(c1-c1cc(F)c(NC(N)=O)cc1F)CN(C(C)c1ccccc1C(F)(F)F)CC2 (centres unmarked) [Example 1.208]
≤ 5 | Cc1cccc(C)c1-n1nc2c(c1-c1cc(F)c(NC(N)=O)cc1F)CN(c1ncc(C(F)(F)F)cc1Cl)CC2 [Example 1.091]
≤ 5 | CCc1cccc(CC)c1-n1nc2c(c1-c1cc(F)c(NC(N)=O)cc1F)CN(Cc1cc(C(F)(F)F)ccc1F)CC2 [Example 1.039]
≤ 5 | CCc1cccc(CC)c1-n1nc2c(c1-c1cc(F)c(NC(N)=O)cc1F)CN(Cc1cc(F)ccc1C(F)(F)F)CC2 [Example 1.028]
≤ 5 | Cc1cccc(OCC(C)C)c1-n1nc2c(c1-c1ccc(NC(N)=O)c(F)c1)CN([C@@H](C)C(C)C)CC2 [Example 1.257]
≤ 5 | CCC(CC)N1CCc2nn(-c3c(C)cccc3OCC(C)C)c(-c3ccc(NC(N)=O)c(F)c3)c2C1 [Example 1.255]
> 500 | Cc1cccc(C)c1-n1nc2c(c1-c1ccc(C(N)=O)cc1)CN(C(=O)OC(C)(C)C)CC2 [Example 1.420]
5 to 50 | Cc1cccc(OCC(C)C)c1-n1nc2c(c1-c1ccc(NC(N)=O)cc1)CN(c1ccc(Cl)c(C(F)(F)F)c1)CC2 [Example 1.379]
5 to 50 | Cc1ccc(N2CCc3nn(-c4c(C)cccc4OCC(C)C)c(-c4ccc(NC(N)=O)cc4)c3C2)cc1C(F)(F)F [Example 1.440]

IC50 [nM] | SMILES
5 to 50 | Cc1cccc(OCC(C)C)c1-n1nc2c(c1-c1ccc(NC(N)=O)cc1)CN(c1ccc(F)cc1C(C)C)CC2 [Example 1.419]
5 to 50 | Cc1cccc(C)c1-n1nc2c(c1-c1cc(F)c(NC(N)=O)cc1F)CN(Cc1ccc(C(F)(F)F)cc1C(F)(F)F)CC2 [Example 1.060]
5 to 50 | CCc1cccc(CC)c1-n1nc2c(c1-c1ccc(NC(N)=O)c(F)c1)CN(C(C)C1CCCC1)CC2 (centres unmarked) [Example 1.216]
≤ 5 | CCc1cccc(CC)c1-n1nc2c(c1-c1cc(F)c(NC(N)=O)cc1F)CN(Cc1ccc(C(F)(F)F)cc1F)C(C)(C)C2 [Example 1.050]
≤ 5 | Cc1cccc(OCC(C)C)c1-n1nc2c(c1-c1ccc(NC(N)=O)cc1)CN(c1cc(C(F)(F)F)ccc1C(F)(F)F)CC2 [Example 1.342]
≤ 5 | CCc1cccc(CC)c1-n1nc2c(c1-c1cc(F)c(NC(N)=O)cc1F)CN(Cc1ccc(C(F)(F)F)cc1Cl)CC2 [Example 1.057]
5 to 50 | Cc1cccc(CCC(C)C)c1-n1nc2c(c1-c1ccc(NC(N)=O)cc1)CN(Cc1ccc(C(F)(F)F)cc1C(F)(F)F)CC2 [Example 1.337]
5 to 50 | Cc1cc(C(F)(F)F)cnc1N1CCc2nn(-c3c(C)cccc3OCC(C)C)c(-c3ccc(NC(N)=O)cc3)c2C1 [Example 1.340]
≤ 5 | Cc1cccc(OCC(C)C)c1-n1nc2c(c1-c1cc(F)c(NC(N)=O)cc1F)CN(c1ncc(Cl)cn1)CC2 [Example 1.175]
≤ 5 | Cc1ccc(C(C)(C)C)cc1N1CCc2nn(-c3c(C)cccc3OCC(C)C)c(-c3ccc(NC(N)=O)cc3)c2C1 [Example 1.457]
≤ 5 | Cc1cccc(C)c1-n1nc2c(c1-c1cc(F)c(NC(N)=O)cc1F)CN(c1ncccc1Cl)CC2 [Example 1.127]
≤ 5 | CCc1cccc(CC)c1-n1nc2c(c1-c1cc(F)c(NC(N)=O)cc1C)CN(Cc1ccc(C(F)(F)F)cc1C(F)(F)F)CC2 [Example 1.068]
≤ 5 | CCc1cccc(CC)c1-n1nc2c(c1-c1cc(F)c(NC(N)=O)cc1F)CN(c1ncc(Cl)cc1Cl)[C@@H](C)C2 [Example 1.013]
≤ 5 | Cc1cccc(OCC(C)C)c1-n1nc2c(c1-c1ccc(NC(N)=O)cc1)CN(Cc1cc(Cl)ccc1C(F)(F)F)CC2 [Example 1.325]
≤ 5 | CCc1cccc(CC)c1-n1nc2c(c1-c1cc(F)c(NC(N)=O)cc1F)CN(C(C)(C)c1ccc(F)cc1)CC2 [Example 1.192]
≤ 5 | Cc1cc(Cl)cnc1N1CCc2nn(-c3c(C)cccc3OCC(C)C)c(-c3ccc(NC(N)=O)c(F)c3)c2C1 [Example 1.206]
> 500 | CCc1cccc(CC)c1-n1nc2c(c1-c1cc(F)c(NC(N)=O)cc1F)CN(C(C(N)=O)c1ccccc1)CC2 (centres unmarked) [Example 1.135]
≤ 5 | Cc1cccc(OCC(C)C)c1-n1nc2c(c1-c1cc(F)c(NC(N)=O)cc1F)CN(c1ccnc(C(F)(F)F)n1)CC2 [Example 1.137]

— patent US11478460B2, “Diaryl substituted 6,5-fused ring compounds as C5aR inhibitors” (CHEMOCENTRYX, INC., priority 2017, dated 2022)
